The assay deals with Plasmodium berghei. The assay is described as follows: Luciferase/luciferin-expressing antifolate-resistant parasites were used to infect a culture of HepG2 cells that were pre-incubated with compounds. Infected hepatocytes emit light due to the luciferase reaction. Assay results are presented as the percent inhibition of light emission compared to control. […]. It counts as functional. Conditions: sporozoite; for IC90: read-out: LUCIFERASE INFECTION ASSAY - IC90.

[1] abbreviates: read-out: LUCIFERASE INFECTION ASSAY - IC50.

In the case of `O=C1C(=Nc2ccc(O)cc2)C=C(NS(=O)(=O)c2cccs2)c2ccccc21`, the IC90 (in general, the point of the concentration-response curve where the effect stands at 90%) is 3.54 µM. Where the note is “FFLUC_HILL_SLOPE 12.7, FFLUC_R_SQUARED 0.111, HEPG2TOX_HILL_SLOPE 2.05, HEPG2TOX_R_SQUARED 0.969, PBLUC_HILL_SLOPE 9.12, PBLUC_R_SQUARED 0.459, read-out: LUCIFERASE INFECTION ASSAY - IC50”, the IC50 (usually the concentration needed to halve the response being measured) is 2.78 µM.
With `O=C(Nc1ccccc1)c1nnsc1S(=O)(=O)c1ccc(Cl)cc1`, the IC90 was more than 8.69 µM. The IC50 under setting [1] is more than 8.69 µM.
On to `Cc1cc(C)cc(-n2nc(C)c3c2NC(=O)CC3c2ccc3c(c2)OCO3)c1` (stereo not drawn), for which the IC90 is more than 8.79 µM. For the same compound, the IC50 (PBLUC_HILL_SLOPE 3.57, PBLUC_R_SQUARED 0.259, read-out: LUCIFERASE INFECTION ASSAY - IC50) turned out to be 7.56 µM.
With `NC(=O)c1ccc(CN(C2CC2)S(=O)(=O)c2ccc3c(c2)CCC3)cc1`, the IC90 is more than 10 µM. Besides, the IC50 (PBLUC_HILL_SLOPE 1.27, PBLUC_R_SQUARED 0.0564, read-out: LUCIFERASE INFECTION ASSAY - IC50) is more than 10 µM.
For the compound `Cc1c(C(=O)Nc2nc(CN3CCCC(C)C3)cs2)oc2ccc(Cl)cc12` (stereo not drawn), the IC90 was more than 10 µM. Besides, the IC50 under setting [1] is more than 10 µM.
Take `CCn1c(NC(=O)C2=NOC(c3ccccc3)C2)nc2ccccc21` (stereo not drawn): the IC90 was found to be 3.82 µM. Further, the IC50 under setting [1] stood at 3.35 µM.
`COc1cccc(-c2nc3ccc(NC(=O)Nc4ccc(Cl)c(C(F)(F)F)c4)cn3n2)c1`: the IC90 was determined as 9.24 µM. Further, for the setting “FFLUC_HILL_SLOPE 14.4, FFLUC_R_SQUARED 0.104, PBLUC_HILL_SLOPE 6.95, PBLUC_R_SQUARED 0.291, read-out: LUCIFERASE INFECTION ASSAY - IC50”, the IC50 was determined as 6.74 µM.
Turning to `CNC(=O)c1ccc(CN(Cc2ccc(SC)cc2)Cc2ccco2)cc1`, the IC90 amounted to 0.736 µM. For the same compound, where the note is “PBLUC_HILL_SLOPE 13.4, PBLUC_R_SQUARED 0.501, read-out: LUCIFERASE INFECTION ASSAY - IC50”, the IC50 came out at 0.624 µM.
As to `CCCc1ccc(C(=O)C(C)Sc2nnc(-c3ccc(OC(F)F)cc3)o2)cc1` (stereo not drawn), the IC90 was more than 10 µM. Moreover, the IC50 under setting [1] is more than 10 µM.
For `Cc1cccc(C(=O)Nc2ccccc2C(=O)OCC(=O)c2c[nH]c3ccccc23)c1`, the IC90 was more than 10 µM. The IC50 under setting [1] is more than 10 µM.
For the compound `Cc1sc(NC(=O)Cc2coc3cc4c(cc23)CCC4)nc1-c1ccc(Cl)cc1`, the IC90 was more than 10 µM. Further, the IC50 under setting [1] was more than 10 µM.
Take `CCCCNC(=O)c1c(NC(=O)c2ccc(C(F)(F)F)cc2)nc2ccccn12`: the IC90 is 0.365 µM. In addition, where the note is “FFLUC_HILL_SLOPE 8.16, FFLUC_R_SQUARED 0.656, HEPG2TOX_HILL_SLOPE 0.864, HEPG2TOX_R_SQUARED 0.784, PBLUC_HILL_SLOPE 12.7, PBLUC_R_SQUARED 0.564, read-out: LUCIFERASE INFECTION ASSAY - IC50”, the IC50 was 0.306 µM.
As for `Cc1cc(=O)[nH]c(SCC(=O)c2cc(C)n(-c3ccccc3)c2C)c1C#N`, the IC90 is more than 10 µM. Further, the IC50 under setting [1] is more than 10 µM.
`Cc1ccccc1C(=O)/C=c1\s/c(=C\c2ccc(O)cc2)c(=O)n1C`: the IC90 is more than 10 µM. For the same compound, the IC50 under setting [1] is more than 10 µM.
Regarding `O=[N+]([O-])c1ccc(OCc2ccccc2)c(Cl)c1`, the IC90 was more than 12.5 µM. The IC50 under setting [1] was more than 12.5 µM.
For the compound `CC(C)Cn1c(SCc2cn3cc(Cl)ccc3n2)nc2ccccc2c1=O`, the IC90 came out at 7.86 µM. Further, the IC50 (HEPG2TOX_HILL_SLOPE 1.44, HEPG2TOX_R_SQUARED 0.631, PBLUC_HILL_SLOPE 96, PBLUC_R_SQUARED 0.548, read-out: LUCIFERASE INFECTION ASSAY - IC50) was found to be 7.68 µM.
Consider `CCN1C(=O)N(CCc2ccccc2)C2(CCN(Cc3ccc(C)cc3)CC2)C1=O`, for which the IC90 is more than 8.14 µM. For the same compound, the IC50 (PBLUC_HILL_SLOPE 4.45, PBLUC_R_SQUARED 0.239, read-out: LUCIFERASE INFECTION ASSAY - IC50) was 6.04 µM.
In the case of `CCOC(=O)c1ccc(NC(=S)N/N=C/c2ccccc2O)cc1`, the IC90 was found to be 5.71 µM. In addition, the IC50 (HEPG2TOX_HILL_SLOPE 1.84, HEPG2TOX_R_SQUARED 0.879, PBLUC_HILL_SLOPE 113, PBLUC_R_SQUARED 0.459, read-out: LUCIFERASE INFECTION ASSAY - IC50) was 5.6 µM.
Turning to `COc1ccccc1/C=C(/CC(=O)NCc1ccc2c(c1)OCO2)c1nc2ccccc2s1`, the IC90 is more than 10 µM. The 50% inhibitory concentration (IC50) under setting [1] is more than 10 µM.
For the compound `O=C1NC(c2ccccc2)=C(c2nc3ccccc3s2)C(c2ccc(O)cc2)N1` (stereo not drawn), the IC90 is more than 10 µM. The IC50 (FFLUC_HILL_SLOPE 17.5, FFLUC_R_SQUARED 0.699, PBLUC_HILL_SLOPE 3.26, 2.75, PBLUC_R_SQUARED 0.346, 0.719, read-out: LUCIFERASE INFECTION ASSAY - IC50) stood at 5.94 µM.
With `CN1CCN(S(=O)(=O)c2ccc(N3CCC(c4nc5ccccc5s4)CC3)nc2)CC1`, the IC90 is more than 10 µM. In addition, the IC50 (PBLUC_HILL_SLOPE 13.7, PBLUC_R_SQUARED 0.493, read-out: LUCIFERASE INFECTION ASSAY - IC50) amounted to 9.47 µM.
Turning to `NC(=O)c1c(NC(=O)NCc2cccnc2)sc2c1CCC2`, the IC90 is more than 10.4 µM. For the same compound, the IC50 (HEPG2TOX_HILL_SLOPE 6.58, HEPG2TOX_R_SQUARED 0.0674, read-out: LUCIFERASE INFECTION ASSAY - IC50) was more than 10.4 µM.
Take `Cc1ccc2nc(NC(=O)c3cccc(Cl)c3)c(C(=O)NCC(C)C)n2c1`: the IC90 is 1.3 µM. Moreover, the IC50 (FFLUC_HILL_SLOPE 3.3, FFLUC_R_SQUARED 0.594, HEPG2TOX_HILL_SLOPE 1.2, HEPG2TOX_R_SQUARED 0.909, PBLUC_HILL_SLOPE 9.89, PBLUC_R_SQUARED 0.561, read-out: LUCIFERASE INFECTION ASSAY - IC50) is 1.04 µM.
As to `Nc1nc(SCc2cc(=O)n3c(n2)sc2ccccc23)nc2sccc12`, the IC90 was more than 10 µM. Also, the IC50 under setting [1] is more than 10 µM.
Consider `O=S(=O)(CCN1CCC(C(c2ccccc2)c2ccccc2)CC1)c1ccc(F)cc1`, for which the IC90 was determined as 5.93 µM. Further, under “PBLUC_HILL_SLOPE 2.04, PBLUC_R_SQUARED 0.498, read-out: LUCIFERASE INFECTION ASSAY - IC50”, the IC50 came to 2.02 µM.
On to `CCc1c(C#N)c(SCC(=O)c2cc(C)n(-c3ccccc3F)c2C)nc2c1C(=O)CC(C)(C)C2`, for which the IC90 was more than 10 µM. In addition, the IC50 under setting [1] came to 5.79 µM.
`C=CCn1c2ccccc2c2ccccc21`: the IC90 was more than 15.9 µM. In addition, the IC50 (FFLUC_HILL_SLOPE 10.4, FFLUC_R_SQUARED 0.117, read-out: LUCIFERASE INFECTION ASSAY - IC50) was more than 15.9 µM.
In the case of `COc1cc(C)ccc1Oc1nc2cc(C)nn2c2ccccc12`, the IC90 was more than 10 µM. Also, the IC50 (HEPG2TOX_HILL_SLOPE 1.87, HEPG2TOX_R_SQUARED 0.892, read-out: LUCIFERASE INFECTION ASSAY - IC50) was more than 10 µM.
As to `Cc1cc(C(=O)COn2nnc3ccc(S(=O)(=O)N4CCOCC4)cc32)c(C)n1C`, the IC90 was more than 10 µM. Besides, the IC50 under setting [1] was more than 10 µM.
`CCn1c2ccccc2c2cc(/C=C(/C(=O)c3ccccc3)c3nc4ccccc4[nH]3)ccc21`: the IC90 was more than 10 µM. The IC50 under setting [1] was found to be 9.13 µM.
As for `CCOc1c(Br)cnn(-c2ccc(C)cc2)c1=O`, the IC90 is more than 10.7 µM. The IC50 (HEPG2TOX_HILL_SLOPE 0.0619, HEPG2TOX_R_SQUARED 0.0842, PBLUC_HILL_SLOPE 9.69, PBLUC_R_SQUARED 0.342, read-out: LUCIFERASE INFECTION ASSAY - IC50) is more than 10.7 µM.
In the case of `Cc1ccsc1C(=O)OCC(=O)Nc1cc(C(C)(C)C)no1`, the IC90 is more than 10 µM. In addition, the IC50 under setting [1] was more than 10 µM.
For the compound `COc1ccc(OC)c(CCNc2nc3cnc(-c4ccccc4C)cc3n2C)c1`, the IC90 worked out at 0.0474 µM. In addition, the IC50 (HEPG2TOX_HILL_SLOPE 0.343, HEPG2TOX_R_SQUARED 0.532, PBLUC_HILL_SLOPE 5.82, PBLUC_R_SQUARED 0.631, read-out: LUCIFERASE INFECTION ASSAY - IC50) was 0.0325 µM.
With `CCCn1c(NC(=O)Cc2coc3cc(OC)ccc23)nc2ccccc21`, the IC90 came to 1.31 µM. In addition, the IC50 (FFLUC_HILL_SLOPE 16.7, FFLUC_R_SQUARED 0.137, HEPG2TOX_HILL_SLOPE 1.66, HEPG2TOX_R_SQUARED 0.728, PBLUC_HILL_SLOPE 12.1, PBLUC_R_SQUARED 0.477, read-out: LUCIFERASE INFECTION ASSAY - IC50) is 1.09 µM.
For the compound `CC(C)(C)c1ccc(NC(=O)c2ccc(CCNS(C)(=O)=O)cc2)cc1`, the IC90 was found to be 3.46 µM. Moreover, the IC50 (HEPG2TOX_HILL_SLOPE 2.32, HEPG2TOX_R_SQUARED 0.971, PBLUC_HILL_SLOPE 55.7, PBLUC_R_SQUARED 0.572, read-out: LUCIFERASE INFECTION ASSAY - IC50) turned out to be 3.32 µM.
Regarding `COC(=O)c1c(NC(=O)C2CCOC2)c2cc(NCC(C)(C)C)cnc2n1CCc1c[nH]c2ccccc12` (stereo not drawn), the IC90 is more than 6.38 µM. The IC50 (PBLUC_HILL_SLOPE 3.23, PBLUC_R_SQUARED 0.492, read-out: LUCIFERASE INFECTION ASSAY - IC50) worked out at 4.09 µM.
Turning to `Cc1cc(Nc2ccc(C(c3ccc(C(=O)O)cc3)c3ccc(Nc4cc(C)nn4-c4ccccc4)nc3Cl)c(Cl)n2)n(-c2ccccc2)n1`, the IC90 is more than 10 µM. Moreover, the IC50 (PBLUC_HILL_SLOPE 2.61, PBLUC_R_SQUARED 0.324, read-out: LUCIFERASE INFECTION ASSAY - IC50) turned out to be 6.2 µM.
With `Cc1c(-c2ccccc2)sc2ncnc(NCC(=O)N3CCCC3)c12`, the IC90 is more than 10 µM. Moreover, under “PBLUC_HILL_SLOPE 2.95, PBLUC_R_SQUARED 0.129, read-out: LUCIFERASE INFECTION ASSAY - IC50”, the IC50 was found to be 5.82 µM.
For the compound `Fc1cccc(-n2nnnc2-c2ccc(Cl)c(Cl)c2)c1`, the IC90 was more than 10.7 µM. The half-maximal inhibitory concentration (IC50) under setting [1] was more than 10.7 µM.
